According to US20050255147A1, “Composition for dietary enrichment” (ZOOLIFE INTERNATIONAL LIMITED, priority 2002, published 2005):

Test system: clown fish
Assay: Skin coloration of clown fish on supplemented diet
Assay type: in vivo
Conditions: synthetic astaxanthin 1000 mg/kg granulated diet, compositions below 50 mg/kg astaxanthin in final feed

In the case of CC1=C(/C=C/C(C)=C/C=C/C(C)=C/C=C/C=C(C)/C=C/C=C(C)/C=C/C2=C(C)C(=O)[C@@H](O)CC2(C)C)C(C)(C)C[C@H](O)C1=O [synthetic astaxanthin, astaxanthin], the skin coloration is reported as “do not to significantly alter skin coloration”.
